Values after ≈ are worked out from the molar mass of the structure shown.
Key:
B. burgdorferi N40 = experiment: Mouse infection model (IP injection, oral gavage); conditions: C3H, oral gavage, 5 days, whole ear culture
[1] = tested on: Bifidobacterium longum ATCC BAA-999; type: cell-based; conditions: ATCCBAA999; Bifidobacterium longum ATCC BAA-999, anaerobic; read-out: Minimum inhibitory concentration (MIC)
[2] = tested on: Fusobacterium nucleatum KLE 2428; type: cell-based; conditions: KLE2428; Fusobacterium nucleatum KLE 2428, anaerobic, stool isolate; read-out: Minimum inhibitory concentration (MIC)
[3] = tested on: Clostridium perfringens KLE 2326; experiment: microbe, parasite or virus in culture; type: cell-based; conditions: Clostridium perfringens, KLE2326, read-out: Minimum inhibitory concentration (MIC)
[4] = tested on: Brevinema andersonii ATCC 43811; conditions: Brevinema andersonii, ATCC43811, read-out: Minimum inhibitory concentration (MIC)
[5] = tested on: Parabacteroides merdae KLE 2238; type: cell-based; conditions: KLE2238; Parabacteroides merdae KLE 2238, anaerobic, stool isolate; read-out: Minimum inhibitory concentration (MIC)
[6] = tested on: Bacteroides eggerthii KLE 2382; type: cell-based; conditions: KLE2382; Bacteroides eggerthii KLE 2382, anaerobic, stool isolate; read-out: Minimum inhibitory concentration (MIC)
Escherichia coli MG1655 = type: cell-based; conditions: read-out: Minimum inhibitory concentration (MIC)
[7] = tested on: Borreliella burgdorferi 297; conditions: Borreliella burgdorferi, 297, read-out: Minimum inhibitory concentration (MIC)
Borrelia afzelii = conditions: Borreliella afzelii, read-out: Minimum inhibitory concentration (MIC)
[8] = tested on: Borrelia turcica DSM 16138; conditions: Borrelia turcica, DSM16138, read-out: Minimum inhibitory concentration (MIC)
[9] = tested on: Staphylococcus epidermidis KLE 2378; type: cell-based; conditions: KLE2378; Staphylococcus epidermidis KLE 2378, anaerobic, stool isolate; read-out: Minimum inhibitory concentration (MIC)
[10] = tested on: Borrelia burgdorferi BbP1286; experiment: microbe, parasite or virus in culture; conditions: Borreliella burgdorferi, BBP1286, read-out: Minimum inhibitory concentration (MIC)
Borrelia garinii = conditions: Borreliella garinii, read-out: Minimum inhibitory concentration (MIC)
[11] = tested on: Salmonella typhimurium LT2 ATCC 19585; type: cell-based; conditions: Salmonella enterica; Salmonella typhimurium LT2 ATCC 19585, anaerobic; read-out: Minimum inhibitory concentration (MIC)
[12] = tested on: Bacteroides cellulosilyticus KLE 2342; type: cell-based; conditions: KLE2342; Bacteroides cellulosilyticus KLE 2342, anaerobic, stool isolate; read-out: Minimum inhibitory concentration (MIC)
[13] = tested on: Borreliella burgdorferi N40; conditions: Borreliella burgdorferi, N40, read-out: Minimum inhibitory concentration (MIC)
[14] = tested on: Lactobacillus reuteri ATCC 23272; type: cell-based; conditions: Limosilactobacillus reuteri, ATCC23272; Lactobacillus reuteri ATCC 23272, anaerobic; read-out: Minimum inhibitory concentration (MIC)
Borreliella miyamotoi = conditions: Borreliella, read-out: Minimum inhibitory concentration (MIC)
[15] = tested on: Leptospira biflexa ATCC 23582; conditions: Leptospira biflexa, ATCC23582, read-out: Minimum inhibitory concentration (MIC)
[16] = tested on: Bacteroides vulgatus KLE 2381; type: cell-based; conditions: Phocaeicola vulgatus, KLE2381; Bacteroides vulgatus KLE 2381, anaerobic, stool isolate; read-out: Minimum inhibitory concentration (MIC)
[17] = tested on: Staphylococcus aureus HG003; type: cell-based; conditions: Staphylococcus aureus HG003; read-out: Minimum inhibitory concentration (MIC)
[18] = tested on: Bacteroides xylanisolvens KLE 2305; type: cell-based; conditions: KLE2305; Bacteroides xylanisolvens KLE 2305, anaerobic, stool isolate; read-out: Minimum inhibitory concentration (MIC)
[19] = tested on: Streptococcus parasanguinis KLE 2375; type: cell-based; conditions: KLE2375; Streptococcus parasanguinis KLE 2375, anaerobic, stool isolate; read-out: Minimum inhibitory concentration (MIC)
murine gut microbiome = experiment: Impact on the murine fecal microbiome (16S rRNA sequencing); conditions: mouse, in vivo
Method: Stool samples were collected and V4 region of the 16s rRNA gene was amplified using primers and sequenced (IonTorrent).
Fecal pellets were collected 3 days before and 3 days after antibiotic treatment and were stored at −80° C. in PBS. Sequencing of a stool pellet from each mouse from before and after treatment was performed by MR DNA (www.mrdnalab.com, Shallowater, TX, USA) on an Ion Torrent PGM. Using PCR primers, the V4 variable region of the 16SrRNA gene was amplified in a single-step 30 cycle PCR with the HotStarTaq Plus Master Mix Kit (Qiagen, USA). The following conditions were used: 94° C. for 3 minutes and 30 cycles of 94° C. for 30 seconds, 53° C. for 40 seconds and 72° C. for 1 minute, then a final elongation step for 5 minutes at 72° C. […] Barcodes and primers and then sequences<150 bp were removed. Further, sequences with homopolymer runs exceeding 6 bp and sequences with ambiguous calls were removed. The sequences were then denoised, OTUs were generated, and chimeras were removed; OTUs were clustered at 3% divergence. Taxonomic classification was performed using BLASTn against a database derived from RDPII available at www.rdp.cme.msu.edu) and NCBI (www.ncbi.nlm.nih.gov). The change in relative abundance of the most abundant genera from before to after treatment of each individual mouse was reported. Further, raw sequences were processed in Qiita (Gonzalez, A., et al. (2018). Nat Methods 15, 796-798; the contents of which are herein incorporated by reference in its entirety) and were demultiplexed, trimmed to 100 bp, and closed reference OTU picking was performed against the Greengenes database at 97% similarity (McDonald, D. et al. (2012). ISME J 6, 610-618; the contents of which are herein incorporated by reference in its entirety). The alpha diversity based on the Simpson index was calculated in Qiita. The change in the Simpson index was calculated for the fecal microbiome of each mouse from before to after treatment. Statistical significance was calculated using a one-way ANOVA with Tukey's multiple comparisons test (p<0.05).

Compound | MIC [1] [µg/mL] | MIC [2] [µg/mL] | MIC [3] [µg/mL] | MIC [4] [µg/mL] | MIC [5] [µg/mL] | MIC [6] [µg/mL] | MIC (Escherichia coli MG1655) [µg/mL] | MIC [7] [µg/mL] | MIC (Borrelia afzelii) [µg/mL] | MIC [8] [µg/mL] | MIC [9] [µg/mL] | MIC [10] [µg/mL] | MIC (Borrelia garinii) [µg/mL] | MIC [11] [µg/mL] | MIC [12] [µg/mL] | MIC [13] [µg/mL] | MIC [14] [µg/mL] | MIC (Borreliella miyamotoi) [µg/mL] | MIC [15] [µg/mL] | MIC [16] [µg/mL] | further results
C[C@H]1c2cccc(O)c2C(=O)C2=C(O)[C@]3(O)C(=O)C(C(N)=O)=C(O)[C@@H](N(C)C)[C@@H]3[C@@H](O)[C@@H]21 [Doxycycline] | 0.25 (≈ 0.563 µM) | 0.12 (≈ 0.27 µM) | 0.25 (≈ 0.563 µM) | 0.12 (≈ 0.27 µM) | 0.06 (≈ 0.135 µM) | 0.01 (≈ 0.0225 µM) | 2 (≈ 4.5 µM) | 0.25 (≈ 0.563 µM) | 0.12 (≈ 0.27 µM) | 0.25 (≈ 0.563 µM) | 0.5 (≈ 1.13 µM) | 0.25 (≈ 0.563 µM) | 0.12 (≈ 0.27 µM) | 8 (≈ 18 µM) | 2 (≈ 4.5 µM) | 0.25 (≈ 0.563 µM) | 8 (≈ 18 µM) | 0.12 (≈ 0.27 µM) | 2 (≈ 4.5 µM) | 1 (≈ 2.25 µM) | Culture positive (%) (B. burgdorferi N40; daily dose 100 mg/kg/day): 0%; MIC [17]: 0.12 µg/mL (≈ 0.27 µM); MIC [18]: 0.5 µg/mL (≈ 1.13 µM); MIC [19]: 4 µg/mL (≈ 9 µM)
CC1(C)S[C@@H]2[C@H](NC(=O)[C@H](N)c3ccc(O)cc3)C(=O)N2[C@H]1C(=O)O [Amoxicillin] | 1 (≈ 2.74 µM) | 2 (≈ 5.47 µM) | 0.12 (≈ 0.328 µM) | 0.12 (≈ 0.328 µM) | 1 (≈ 2.74 µM) | 0.5 (≈ 1.37 µM) | 16 (≈ 43.8 µM) | 0.25 (≈ 0.684 µM) | 0.01 (≈ 0.0274 µM) | 0.25 (≈ 0.684 µM) | > 128 | 0.12 (≈ 0.328 µM) | 0.12 (≈ 0.328 µM) | 16 (≈ 43.8 µM) | 128 (≈ 350 µM) | 0.12 (≈ 0.328 µM) | 4 (≈ 10.9 µM) | 0.12 (≈ 0.328 µM) | 8 (≈ 21.9 µM) | 128 (≈ 350 µM) | Culture positive (%) (B. burgdorferi N40; daily dose 200 mg/kg/day): 0%; Bloom of Bacteroides (murine gut microbiome): produced a bloom of Bacteroides; Changes in the composition of the microbiota (murine gut microbiome): significant changes; Mice with Enterococcaceae blooms (murine gut microbiome): 4/5; MIC [17]: 1 µg/mL (≈ 2.74 µM); MIC [18]: 32 µg/mL (≈ 87.6 µM); MIC [19]: 64 µg/mL (≈ 175 µM)

Reference: patent US20240082282A1 (priority 2020, published 2024)
